Reference: patent publication US20230085307A1, “PYRIDAZINONE COMPOUND AND HERBICIDE” (NISSAN CHEMICAL CORPORATION, priority 2019, published 2023)

Assays:
southern crabgrass [1] = experiment: Test Example 4: herbicidal effect by soil treatment (Table 19, symbol F); format: in vivo, southern crabgrass (Digitaria ciliaris); details: for herbicidal effect on F: southern crabgrass: amount of applied herbicide 320 g/ha
How it was run: (§1)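 In this soil treatment, the formulated compound reached the seeds only through the soil: seeds were buried about 1.5 cm deep in sterilized diluvial soil, then the diluted emulsion was sprayed over the surface. After three weeks at 25° C. to 30° C. in a greenhouse, effects were graded on criteria from an earlier test.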

windgrass = experiment: Test Example 5: herbicidal effect by foliage application, plastic box (Table 20, symbol L); format: in vivo, windgrass (Apera spica-venti); details: foliage application; for L: windgrass, herbicidal effect (criteria 0-5): AAH 320 g/ha
How it was run: (§2)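 Plants were sown into sterilized diluvial soil under about 1.5 cm cover and kept in a greenhouse at 25° C. to 30° C. Fourteen days on, foliage received an even spray of the diluted emulsion. Herbicidal or crop effect was judged three weeks afterwards.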

Italian ryegrass = experiment: Test Example 5: herbicidal effect by foliage application, plastic box (Table 20, symbol K); format: in vivo, Italian ryegrass (Lolium multiflorum); details: foliage application; for K: Italian ryegrass, herbicidal effect (criteria 0-5): AAH 320 g/ha
How it was run: as §2

lambsquarters [2] = experiment: Test Example 5: herbicidal effect by foliage application, plastic box (Table 20, symbol O); format: in vivo, lambsquarters (Chenopodium album); details: foliage application; for O: lambsquarters, herbicidal effect (criteria 0-5): AAH 320 g/ha
How it was run: as §2

persian speedwell = experiment: Test Example 5: herbicidal effect by foliage application, plastic box (Table 20, symbol R); format: in vivo, Persian speedwell (Veronica persica); details: foliage application; for R: persian speedwell, herbicidal effect (criteria 0-5): AAH 320 g/ha
How it was run: as §2

Japanese bulrush [3] = experiment: Test Example 2: herbicidal activity, application during weed generation under submerged conditions (Table 17, symbol B); format: in vivo, Japanese bulrush (Schoenoplectus juncoides); details: AAH 320 g/ha; application during weed generation, submerged conditions
How it was run: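 Mixed weed seedlings in alluvial soil under a 4 cm water layer, greenhouse-grown at 25–30° C. Compound given as a diluted emulsion into the floodwater at the 1–2 leaf stage; response graded after three weeks.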

Japanese bulrush [4] = experiment: Test Example 1: herbicidal activity, application before weed generation under submerged conditions (Table 16, symbol B); format: in vivo, Japanese bulrush (Schoenoplectus juncoides); details: 320 g/ha applied herbicide
How it was run: (§3)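 Submerged Wagner pots (alluvial soil, 4 cm water) sown with weed seeds and planted with 2.5-leaf rice seedlings; emulsifiable concentrate diluted in water applied to water surface on sowing day. Held in greenhouse at 25-30 °C; injury scored 0-5 by herbicidal rate after three weeks.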

velvetleaf [5] = experiment: Test Example 4: herbicidal effect by soil treatment (Table 19, symbol M); format: in vivo, velvetleaf (Abutilon theophrasti); details: for herbicidal effect on M: velvetleaf: amount of applied herbicide 320 g/ha
How it was run: as §1

barnyard grass [6] = experiment: Test Example 3: herbicidal effect by foliage application, Wagner pot (Table 18, symbol H); format: in vivo, barnyard grass (Echinochloa crus-galli); details: for herbicidal effect on H (barnyard grass), rating 0-5: 320 g/ha; for herbicidal effect on H: barnyard grass: amount of applied herbicide 320 g/ha
How it was run: (§4)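 Plants were sown in alluvial soil held under 0.1–0.5 cm standing water and grown 14 days in a greenhouse at 25–30 °C. An emulsifiable formulation, water-diluted to the set dose, was then sprayed onto the foliage, and effects were scored three weeks later using previously defined criteria.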

barnyard grass [7] = experiment: Test Example 4: herbicidal effect by soil treatment (Table 19, symbol H); format: in vivo, barnyard grass (Echinochloa crus-galli); details: for herbicidal effect on H: barnyard grass: amount of applied herbicide 320 g/ha
How it was run: as §1

southern crabgrass [8] = experiment: Test Example 5: herbicidal effect by foliage application, plastic box (Table 20, symbol F); format: in vivo, southern crabgrass (Digitaria ciliaris); details: foliage application; for F: southern crabgrass, herbicidal effect (criteria 0-5): AAH 320 g/ha
How it was run: as §2

wild oat = experiment: Test Example 5: herbicidal effect by foliage application, plastic box (Table 20, symbol I); format: in vivo, wild oat (Avena fatua); details: foliage application; for I: wild oat, herbicidal effect (criteria 0-5): AAH 320 g/ha
How it was run: as §2

late watergrass = experiment: Test Example 1: herbicidal activity, application before weed generation under submerged conditions (Table 16, symbol A); format: in vivo, late watergrass (Echinochloa oryzicola); details: 320 g/ha applied herbicide
How it was run: as §3

Chinese sprangletop = experiment: Test Example 3: herbicidal effect by foliage application, Wagner pot (Table 18, symbol D); format: in vivo, chinese sprangletop (Leptochloa chinensis); details: for herbicidal effect on D (Chinese sprangletop), rating 0-5: 320 g/ha; for herbicidal effect on D: Chinese sprangletop: amount of applied herbicide 320 g/ha
How it was run: as §4

lambsquarters [9] = experiment: Test Example 4: herbicidal effect by soil treatment (Table 19, symbol O); format: in vivo, lambsquarters (Chenopodium album); details: for herbicidal effect on O: lambsquarters: amount of applied herbicide 320 g/ha
How it was run: as §1

velvetleaf [10] = experiment: Test Example 5: herbicidal effect by foliage application, plastic box (Table 20, symbol M); format: in vivo, velvetleaf (Abutilon theophrasti); details: foliage application; for M: velvetleaf, herbicidal effect (criteria 0-5): AAH 320 g/ha
How it was run: as §2

[11] = 320 g/ha, 3 weeks after application
[12] = 320 g/ha, evaluated three weeks after application
[13] = evaluated three weeks after application

Compound | herbicidal effect rating, B: Japanese bulrush (Japanese bulrush [3]) | Herbicidal effect on B: Japanese bulrush (grade 0-5) (Japanese bulrush [4]) | herbicidal effect on H (barnyard grass), rating 0-5 (barnyard grass [6]) | Herbicidal effect on A: late watergrass (grade 0-5) (late watergrass) | herbicidal effect on D (Chinese sprangletop), rating 0-5 (Chinese sprangletop) | herbicidal effect on F: southern crabgrass (southern crabgrass [1]) | L: windgrass, herbicidal effect (criteria 0-5) (windgrass; [13]) | K: Italian ryegrass, herbicidal effect (criteria 0-5) (Italian ryegrass; [13]) | O: lambsquarters, herbicidal effect (criteria 0-5) (lambsquarters [2]; [13]) | R: persian speedwell, herbicidal effect (criteria 0-5) (persian speedwell; [13]) | herbicidal effect on M: velvetleaf (velvetleaf [5]) | herbicidal effect on H: barnyard grass (barnyard grass [6]) | herbicidal effect on H: barnyard grass (barnyard grass [7]) | F: southern crabgrass, herbicidal effect (criteria 0-5) (southern crabgrass [8]; [13]) | I: wild oat, herbicidal effect (criteria 0-5) (wild oat; [13]) | herbicidal effect on D: Chinese sprangletop (Chinese sprangletop) | herbicidal effect on O: lambsquarters (lambsquarters [9]) | M: velvetleaf, herbicidal effect (criteria 0-5) (velvetleaf [10]; [13]) | also measured
Cc1nn(C)c(=O)c(-c2c(-c3ccc(OC(F)F)cc3)sc3ccccc23)c1O [1-201] | 3 (Herbicidal rate of 40% or more and less than 70%) | 4 (Herbicidal rate of 70% or more and less than 90%) | 5 (Herbicidal rate of 90% or more (almost completely withered)) | 3 (Herbicidal rate of 40% or more and less than 70%) | 4 (Herbicidal rate of 70% or more and less than 90%) |  |  |  |  |  |  |  |  |  |  |  |  |  | F: southern crabgrass, herbicidal effect rating (southern crabgrass [1]; AAH 320 g/ha): 2 (Herbicidal rate of 20% or more and less than 40%); effect on windgrass (L) (windgrass; [11]): 4 (Herbicidal rate of 70% or more and less than 90%); effect on Italian ryegrass (K) (Italian ryegrass; [11]): 5 (Herbicidal rate of 90% or more (almost completely withered)); effect on lambsquarters (O) (lambsquarters [2]; [11]): 5 (Herbicidal rate of 90% or more (almost completely withered)); effect on persian speedwell (R) (persian speedwell; [11]): 5 (Herbicidal rate of 90% or more (almost completely withered)); M: velvetleaf, herbicidal effect rating (velvetleaf [5]; AAH 320 g/ha): 3 (Herbicidal rate of 40% or more and less than 70%); H: barnyard grass, herbicidal effect rating (barnyard grass [7]; AAH 320 g/ha): 5 (Herbicidal rate of 90% or more (almost completely withered)); effect on southern crabgrass (F) (southern crabgrass [8]; [11]): 0 (Herbicidal rate of 5% or less (almost no effect)); effect on wild oat (I) (wild oat; [11]): 2 (Herbicidal rate of 20% or more and less than 40%); O: lambsquarters, herbicidal effect rating (lambsquarters [9]; AAH 320 g/ha): 5 (Herbicidal rate of 90% or more (almost completely withered)); effect on velvetleaf (M) (velvetleaf [10]; [11]): 5 (Herbicidal rate of 90% or more (almost completely withered))
CCCC(=O)Oc1c(C)nn(C)c(=O)c1-c1c(-c2ccc(C(C)=O)cc2)sc2ccc(F)cc12 [2-078] | 4 (Herbicidal rate of 70% or more and less than 90%) | 4 (Herbicidal rate of 70% or more and less than 90%) | 3 (Herbicidal rate of 40% or more and less than 70%) | 5 (Herbicidal rate of 90% or more (almost completely withered)) | 5 (Herbicidal rate of 90% or more (almost completely withered)) |  |  |  |  |  |  |  |  |  |  |  |  |  | herbicidal effect rating, F: southern crabgrass (southern crabgrass [1]; 320 g/ha): 0 (Herbicidal rate of 5% or less (almost no effect)); herbicidal effect on L: windgrass (windgrass; [12]): 5 (Herbicidal rate of 90% or more (almost completely withered)); herbicidal effect on K: Italian ryegrass (Italian ryegrass; [12]): 5 (Herbicidal rate of 90% or more (almost completely withered)); herbicidal effect on O: lambsquarters (lambsquarters [2]; [12]): 4 (Herbicidal rate of 70% or more and less than 90%); herbicidal effect on R: persian speedwell (persian speedwell; [12]): 5 (Herbicidal rate of 90% or more (almost completely withered)); herbicidal effect rating, M: velvetleaf (velvetleaf [5]; 320 g/ha): 3 (Herbicidal rate of 40% or more and less than 70%); herbicidal effect rating, H: barnyard grass (barnyard grass [7]; 320 g/ha): 0 (Herbicidal rate of 5% or less (almost no effect)); herbicidal effect on F: southern crabgrass (southern crabgrass [8]; [12]): 0 (Herbicidal rate of 5% or less (almost no effect)); herbicidal effect on I: wild oat (wild oat; [12]): 2 (Herbicidal rate of 20% or more and less than 40%); herbicidal effect rating, O: lambsquarters (lambsquarters [9]; 320 g/ha): 4 (Herbicidal rate of 70% or more and less than 90%); herbicidal effect on M: velvetleaf (velvetleaf [10]; [12]): 5 (Herbicidal rate of 90% or more (almost completely withered))
Cc1nn(C)c(=O)c(-c2c(-c3ccc(OC(F)F)cc3)sc3ccc(F)cc23)c1OC(=O)c1cccs1 [2-288] | 3 (Herbicidal rate of 40% or more and less than 70%) | 5 (Herbicidal rate of 90% or more (almost completely withered)) |  | 5 (Herbicidal rate of 90% or more (almost completely withered)) |  | 3 (Herbicidal rate of 40% or more and less than 70%) | 3 (Herbicidal rate of 40% or more and less than 70%) | 5 (Herbicidal rate of 90% or more (almost completely withered)) | 5 (Herbicidal rate of 90% or more (almost completely withered)) | 5 (Herbicidal rate of 90% or more (almost completely withered)) | 3 (Herbicidal rate of 40% or more and less than 70%) | 5 (Herbicidal rate of 90% or more (almost completely withered)) | 2 (Herbicidal rate of 20% or more and less than 40%) | 2 (Herbicidal rate of 20% or more and less than 40%) | 1 (Herbicidal rate of 5% or more and less than 20%) | 4 (Herbicidal rate of 70% or more and less than 90%) | 4 (Herbicidal rate of 70% or more and less than 90%) | 5 (Herbicidal rate of 90% or more (almost completely withered)) | 
COCCOC(=O)Oc1c(C)nn(C)c(=O)c1-c1c(-c2ccc(OC(F)F)cc2)sc2ccc(F)cc12 [2-295] | 3 (Herbicidal rate of 40% or more and less than 70%) | 3 (Herbicidal rate of 40% or more and less than 70%) |  | 4 (Herbicidal rate of 70% or more and less than 90%) |  | 5 (Herbicidal rate of 90% or more (almost completely withered)) | 5 (Herbicidal rate of 90% or more (almost completely withered)) | 5 (Herbicidal rate of 90% or more (almost completely withered)) | 5 (Herbicidal rate of 90% or more (almost completely withered)) | 5 (Herbicidal rate of 90% or more (almost completely withered)) | 4 (Herbicidal rate of 70% or more and less than 90%) | 5 (Herbicidal rate of 90% or more (almost completely withered)) | 5 (Herbicidal rate of 90% or more (almost completely withered)) | 4 (Herbicidal rate of 70% or more and less than 90%) | 3 (Herbicidal rate of 40% or more and less than 70%) | 4 (Herbicidal rate of 70% or more and less than 90%) | 5 (Herbicidal rate of 90% or more (almost completely withered)) | 5 (Herbicidal rate of 90% or more (almost completely withered)) | 
